Reference: publication PMC11809415 (The Journal of Cell Biology, 2025)
Entries after “also recorded” stand apart in the source; their conditions may differ.

Experiments:
[1] = biological target: F-actin; assay: High-speed cosedimentation with F-actin (120,000 g), SDS-PAGE densitometry; assay type: binding, rabbit skeletal muscle α-actin; settings: for Fraction bound: 2 μM mCherry fusion
Protocol: (§1) Rabbit skeletal muscle α-actin was purified from muscle acetone powder (Pel-Freez Biologicals) as described in [Merino et al. (2018)] and stored in 50 μl aliquots at −70°C.
A single colony was inoculated into 200 ml of LB media and grown at 37°C. At OD600 0.6–1.0, protein expression was induced by the addition of IPTG to a final concentration of 0.02 mM. After 16 h of expression at 22°C, the cells were harvested by centrifugation, resuspended in TBS (20 mM Tris pH 8 and 150 mM NaCl), and lysed by sonication. The soluble fraction was applied on TBS-equilibrated Protino Ni-IDA resin (Macherey-Nagel), washed, eluted with TBS supplemented with 250 mM imidazole, dialyzed against TBS, and stored at −20°C.
Freshly thawed mammalian α-actin was spun down at 120,000 g for 20 min at 4°C using a TLA-120.1 rotor, and the supernatant containing G-actin was collected. The protein was then polymerized by incubation in F buffer (120 mM KCl, 20 mM Tris pH 8, 2 mM MgCl2, 1 mM DTT, and 1 mM ATP) for 2 h on ice. Cosedimentation assays were performed in 20 μl volumes by first incubating F-actin with F-tractinopt-mCherry fusions for 5 min at room temperature and then centrifuging at 120,000 g using the TLA-120.1 rotor for 20 min at 4°C. After centrifugation, aliquots of the supernatant and resuspended pellet fractions were separated on SDS-polyacrylamide gels with 2,2,2-trichloroethanol ([Ladner-Keay et al., 2018]), visualized under ultraviolet light, and analyzed by densitometry using ImageJ (RRID:SCR_003070). The Kd values were calculated using GraphPad Prism software (RRID:SCR_002798).

[2] = test system: actin (ADP-ribosylation by TcART, Photorhabdus luminescens); assay: ADP-ribosylation of actin by TcART in presence of actin-binding peptides; assay type: biochemical, rabbit skeletal muscle α-actin; settings: for ADP-ribosylation level: relative to no peptide = 1, […] actin, 314 pM TcART, 10 min 37°C; for effect on TcART modification of F-actin (in words): peptides up to 100 µM
Protocol: as §1
TcART, the ADP-ribosyltransferase from P. luminescens Tc toxin, was purified from E. coli BL21-CodonPlus(DE3)-RIPL harboring the plasmid pB656 as described previously ([Belyy et al., 2022]).
A total of 8-μl mixtures of 2 μg (4.8 μM final concentration) actin and actin-binding peptides at specified concentrations were preincubated for 5 min at room temperature in the buffer containing 1 mM NAD, 20 mM Tris pH 8, 150 mM NaCl, and 1 mM MgCl2. The ADP ribosylation reaction was initiated by the addition of 0.2 ng (314 pM) of TcART to the mixture. After 10 min of incubation at 37°C, the reaction was stopped by adding Laemmli sample buffer and heating the sample at 95°C for 5 min. The components of the mixture were separated by SDS-PAGE, blotted onto a polyvinylidene difluoride (PVDF) membrane using a Trans-Blot Turbo Transfer System (Bio-Rad), and visualized using a combination of the His-tagged ADP-ribose binding protein at the concentration of 0.01 mg/ml and HisProbe-HRP conjugate. The level of actin ADP-ribosylation was quantified by densitometry using ImageJ.

[3] = test system: U-2 OS cells (phalloidin-stained actin); assay: Colocalization with phalloidin in U-2 OS cells (Pearson correlation); assay type: cell-based, human; settings: EGFP fusions
[4] = test system: F-actin; assay: Actin bundling assay using low-speed centrifugation (10,000 g); assay type: biochemical, rabbit skeletal muscle α-actin; settings: for F-actin in the pellet: 10 μM actin filaments, 5 min RT, 10,000 g
Protocol: as §1
8 μl of actin filaments at 10 μM were mixed with peptides at the specified concentration, incubated for 5 min at room temperature, and spun down at 10,000 g for 10 min at 4°C. Aliquots of the supernatant and resuspended pellet fractions were separated on SDS-polyacrylamide gels with 2,2,2-trichloroethanol ([Ladner-Keay et al., 2018]) and visualized with ultraviolet light.

[5] = test system: U-2 OS cells (actin fibers); assay: Signal-to-noise ratio (fibers/cytosol) in U-2 OS cells; assay type: cell-based, human; settings: EGFP fusions, compared with WT F-tractin
[6] = test system: U-2 OS cells; assay: Nuclear signal enrichment in U-2 OS cells; assay type: cell-based, human; settings: EGFP fusions
[7] = test system: U-2 OS cells; assay: FRAP recovery half time in U-2 OS cells; assay type: cell-based, human; settings: EGFP fusions
[8] = test system: F-actin; settings: ref Melak et al., 2017; cited from earlier work
Description: Phalloidin, a cyclic peptide derived from the fungus Amanita phalloides, was one of the first probes used for F-actin labeling ([Wehland et al., 1977]; [Wulf et al., 1979]). […] The need to visualize actin dynamics led to the development of genetically encoded fluorescent probes. Chimeras of green fluorescent protein ... || In live cell imaging experiments, F-tractin is typically used as a fusion of fluorescent proteins. […] However, a comparison of both markers has been largely limited to characterizations in cells ([Belin et al., 2014]; [Spracklen et al., 2014]; [Vosatka et al., 2022]). With structures of both probes in complex with F-actin available, we can now directly compare their actin interactions in atomic detail (Fig. 4, A–C). Both probes are at their core amphipathic helices that bind to overlapping interfaces of consecutive actin subunits, indicating a preference for “aged” A ...

[9] = ref Coluccio and Tilney, 1984; cited from earlier work
Description: Phalloidin, a cyclic peptide derived from the fungus Amanita phalloides, was one of the first probes used for F-actin labeling ([Wehland et al., 1977]; [Wulf et al., 1979]). […] The need to visualize actin dynamics led to the development of genetically encoded fluorescent probes. Chimeras of green fluorescent protein ...

Substance: APRRSVGELRLLAEARAASAA [F29A F-tractinopt, mCherry fusion in cosedimentation, EGFP fusion in cells]
- Kd ([1]; 2 μM probe as mCherry fusion, F-actin titrated, 5 min at room temperature, three independent experiments): > 100 µM
- Fraction bound ([1]; F-actin 2 µM, Repeat 1): 0,02963
- Fraction bound ([1]; F-actin 2 µM, Repeat 2): 0,031317
- Fraction bound ([1]; F-actin 2 µM, Repeat 3): 0,036
- Fraction bound ([1]; F-actin 5 µM, Repeat 1): 0,020561
- Fraction bound ([1]; F-actin 5 µM, Repeat 2): 0,008869
- Fraction bound ([1]; F-actin 5 µM, Repeat 3): 0,001393
- Fraction bound ([1]; F-actin 10 µM, Repeat 1): 0,051546
- Fraction bound ([1]; F-actin 10 µM, Repeat 2): 0,016783
- Fraction bound ([1]; F-actin 10 µM, Repeat 3): 0,023887
- Fraction bound ([1]; F-actin 20 µM, Repeat 1): 0,035971
- Fraction bound ([1]; F-actin 20 µM, Repeat 2): 0,051087
- Fraction bound ([1]; F-actin 20 µM, Repeat 3): 0,050633
- Fraction bound ([1]; F-actin 40 µM, Repeat 1): 0,071269
- Fraction bound ([1]; F-actin 40 µM, Repeat 2): 0,046373
- Fraction bound ([1]; F-actin 40 µM, Repeat 3): 0,065217
- affinity for F-actin (in words) ([1]; cosedimentation, mCherry fusions of F-tractinopt variants): barely detectable in the pellet at the highest concentration of F-actin used
- ADP-ribosylation level ([2]; peptide 100 µM, Repeat 1): 0,715886
- ADP-ribosylation level ([2]; peptide 100 µM, Repeat 2): 1,144903
- ADP-ribosylation level ([2]; peptide 100 µM, Repeat 3): 1,162086
- effect on TcART modification of F-actin (in words) [2]: did not interfere with TcART modification of F-actin
- binding to actin in cells (in words) [3]: completely failed to bind to actin in cells

Substance: APRRSVGELRLLFEARAASAA [F-tractinopt, optimized F-tractin peptide; mCherry fusion in cosedimentation, EGFP fusion in cells]
- Fraction bound ([1]; F-actin 2 µM, Repeat 1): 0,113982
- Fraction bound ([1]; F-actin 2 µM, Repeat 2): 0,125633
- Fraction bound ([1]; F-actin 2 µM, Repeat 3): 0,150215
- Fraction bound ([1]; F-actin 5 µM, Repeat 1): 0,211009
- Fraction bound ([1]; F-actin 5 µM, Repeat 2): 0,27957
- Fraction bound ([1]; F-actin 5 µM, Repeat 3): 0,318841
- Fraction bound ([1]; F-actin 10 µM, Repeat 1): 0,480176
- Fraction bound ([1]; F-actin 10 µM, Repeat 2): 0,433657
- Fraction bound ([1]; F-actin 10 µM, Repeat 3): 0,418605
- Fraction bound ([1]; F-actin 20 µM, Repeat 1): 0,569748
- Fraction bound ([1]; F-actin 20 µM, Repeat 2): 0,578018
- Fraction bound ([1]; F-actin 20 µM, Repeat 3): 0,523474
- Fraction bound ([1]; F-actin 40 µM, Repeat 1): 0,557282
- Fraction bound ([1]; F-actin 40 µM, Repeat 2): 0,621935
- Fraction bound ([1]; F-actin 40 µM, Repeat 3): 0,643478
- actin bundling (in words) ([4]; in vitro, up to 100 µM, low-speed centrifugation and cryo-EM): minimal actin bundling
- F-actin in the pellet ([4]; peptide 1 µM, Repeat 1): 0,098435
- F-actin in the pellet ([4]; peptide 1 µM, Repeat 2): 0,057915
- F-actin in the pellet ([4]; peptide 1 µM, Repeat 3): 0,103265
- F-actin in the pellet ([4]; peptide 100 µM, Repeat 1): 0,099007
- F-actin in the pellet ([4]; peptide 100 µM, Repeat 2): 0,095989
- F-actin in the pellet ([4]; peptide 100 µM, Repeat 3): 0,158954
- F-actin in the pellet ([4]; peptide 1000 µM, Repeat 1): 0,238373
- F-actin in the pellet ([4]; peptide 1000 µM, Repeat 2): 0,117922
- F-actin in the pellet ([4]; peptide 1000 µM, Repeat 3): 0,212762
- ADP-ribosylation level ([2]; peptide 1 µM, Repeat 1): 1,245716
- ADP-ribosylation level ([2]; peptide 1 µM, Repeat 2): 0,95033
- ADP-ribosylation level ([2]; peptide 1 µM, Repeat 3): 1,419998
- ADP-ribosylation level ([2]; peptide 3 µM, Repeat 1): 1,210256
- ADP-ribosylation level ([2]; peptide 3 µM, Repeat 2): 1,296322
- ADP-ribosylation level ([2]; peptide 3 µM, Repeat 3): 1,29383
- ADP-ribosylation level ([2]; peptide 10 µM, Repeat 1): 0,846657
- ADP-ribosylation level ([2]; peptide 10 µM, Repeat 2): 0,728925
- ADP-ribosylation level ([2]; peptide 10 µM, Repeat 3): 1,078508
- ADP-ribosylation level ([2]; peptide 30 µM, Repeat 1): 0,320904
- ADP-ribosylation level ([2]; peptide 30 µM, Repeat 2): 0,220558
- ADP-ribosylation level ([2]; peptide 30 µM, Repeat 3): 0,140877
- ADP-ribosylation level ([2]; peptide 100 µM, Repeat 1): 0,032604
- ADP-ribosylation level ([2]; peptide 100 µM, Repeat 2): 0,100767
- ADP-ribosylation level ([2]; peptide 100 µM, Repeat 3): 0,002262
- effect on TcART modification of F-actin (in words) [2]: inhibited TcART activity in a similar dose-dependent manner
- signal-to-noise ratio between actin fibers and cytosol (in words) [5]: behave very similarly (no
- nuclear enrichment (in words) [6]: slightly higher accumulation of F-tractinopt in the nucleus
- exchange / recovery in FRAP (in words) [7]: exchanged faster than WT F-tractin; also recorded: FRAP recovery rates

Substance: Phalloidin
- affinity and selectivity for F-actin [8]: high affinity and selectivity for F-actin
- membrane permeability [9]: low membrane permeability
